Measurements taken from PubChem BioAssay (NCI).
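Compound exposure: 48 hours, 5 concentrations, 96-well plates. TGI: concentration producing complete growth inhibition.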

Tests used:
Test in all cases: NCI-60 cell line screen, 48 h
786-0 renal = system: 786-0 renal
A498 renal = system: A498 renal
A549 NSCLC = system: A549 NSCLC
ACHN renal = system: ACHN renal
CAKI-1 renal = system: CAKI-1 renal
CCRF-CEM leukemia = system: CCRF-CEM leukemia
COLO 205 colon = system: COLO 205 colon
DLD-1 colon = system: DLD-1 colon
DMS 114 small cell lung = system: DMS 114 small cell lung
DMS 273 small cell lung = system: DMS 273 small cell lung
EKVX NSCLC = system: EKVX NSCLC
HCC-2998 colon = system: HCC-2998 colon
HCT-116 colon = system: HCT-116 colon
HCT-15 colon = system: HCT-15 colon
HL-60(TB) leukemia = system: HL-60(TB) leukemia
HOP-18 NSCLC = system: HOP-18 NSCLC
HOP-62 NSCLC = system: HOP-62 NSCLC
HOP-92 NSCLC = system: HOP-92 NSCLC
HT29 colon = system: HT29 colon
IGROV1 ovarian = system: IGROV1 ovarian
K-562 leukemia = system: K-562 leukemia
KM12 colon = system: KM12 colon
KM20L2 colon = system: KM20L2 colon
LOX IMVI melanoma = system: LOX IMVI melanoma
LXFL 529 NSCLC = system: LXFL 529 NSCLC
M14 melanoma = system: M14 melanoma
M19-MEL melanoma = system: M19-MEL melanoma
MALME-3M melanoma = system: MALME-3M melanoma
MOLT-4 leukemia = system: MOLT-4 leukemia
NCI-H226 lung = system: NCI-H226 lung
NCI-H23 lung = system: NCI-H23 lung
NCI-H460 lung = system: NCI-H460 lung
NCI-H522 lung = system: NCI-H522 lung
OVCAR-3 ovarian = system: OVCAR-3 ovarian
OVCAR-4 ovarian = system: OVCAR-4 ovarian
OVCAR-5 ovarian = system: OVCAR-5 ovarian
OVCAR-8 ovarian = system: OVCAR-8 ovarian
RPMI-8226 leukemia = system: RPMI-8226 leukemia
RXF 393 renal = system: RXF 393 renal
SF-268 CNS = system: SF-268 CNS
SF-295 CNS = system: SF-295 CNS
SF-539 CNS = system: SF-539 CNS
SK-MEL-2 melanoma = system: SK-MEL-2 melanoma
SK-MEL-28 melanoma = system: SK-MEL-28 melanoma
SK-MEL-5 melanoma = system: SK-MEL-5 melanoma
SK-OV-3 ovarian = system: SK-OV-3 ovarian
SN12C renal = system: SN12C renal
SNB-19 CNS = system: SNB-19 CNS
SNB-75 CNS = system: SNB-75 CNS
SNB-78 CNS = system: SNB-78 CNS
SR leukemia = system: SR leukemia
SW-620 colon = system: SW-620 colon
TK-10 renal = system: TK-10 renal
U251 CNS = system: U251 CNS
UACC-257 melanoma = system: UACC-257 melanoma
UACC-62 melanoma = system: UACC-62 melanoma
UO-31 renal = system: UO-31 renal
XF 498 CNS = system: XF 498 CNS

In the case of `[N-]=[N+]=Nc1ncnc2c1sc(=S)n2-c1ccccc1`, the TGI (786-0 renal) is reported as > 100 µM, the TGI (A498 renal) is reported as > 100 µM and the TGI (A549 NSCLC) is reported as > 100 µM. The TGI (ACHN renal) was > 100 µM, the TGI (CAKI-1 renal) was > 100 µM and the TGI (CCRF-CEM leukemia) was > 100 µM. For the same molecule, the TGI (COLO 205 colon) was > 100 µM, the TGI (DLD-1 colon) was > 100 µM and the TGI (DMS 114 small cell lung) was > 100 µM. The TGI (DMS 273 small cell lung) was > 100 µM, the TGI (EKVX NSCLC) was > 100 µM and the TGI (HCC-2998 colon) was > 100 µM. The TGI (HCT-116 colon) was > 100 µM, the TGI (HCT-15 colon) was > 100 µM and the TGI (HL-60(TB) leukemia) was > 100 µM. The TGI (HOP-18 NSCLC) was > 100 µM, the TGI (HOP-62 NSCLC) was 52.7 µM and the TGI (HOP-92 NSCLC) was > 100 µM. For the same molecule, the TGI (HT29 colon) was > 100 µM, the TGI (IGROV1 ovarian) was > 100 µM and the TGI (K-562 leukemia) was > 100 µM. The TGI (KM12 colon) was > 100 µM, the TGI (KM20L2 colon) was > 100 µM and the TGI (LOX IMVI melanoma) was > 100 µM. For the same molecule, the TGI (LXFL 529 NSCLC) was > 100 µM, the TGI (M14 melanoma) was > 100 µM and the TGI (M19-MEL melanoma) was > 100 µM. For the same molecule, the TGI (MALME-3M melanoma) was > 100 µM, the TGI (MOLT-4 leukemia) was > 100 µM and the TGI (NCI-H226 lung) was > 100 µM. For the same molecule, the TGI (NCI-H23 lung) was > 100 µM, the TGI (NCI-H460 lung) was > 100 µM and the TGI (NCI-H522 lung) was > 100 µM. For the same molecule, the TGI (OVCAR-3 ovarian) was > 100 µM, the TGI (OVCAR-4 ovarian) was > 100 µM and the TGI (OVCAR-5 ovarian) was > 100 µM. The TGI (OVCAR-8 ovarian) was > 100 µM, the TGI (RPMI-8226 leukemia) was > 100 µM and the TGI (RXF 393 renal) was > 100 µM. For the same molecule, the TGI (SF-268 CNS) was > 100 µM, the TGI (SF-295 CNS) was > 100 µM and the TGI (SF-539 CNS) was > 100 µM. The TGI (SK-MEL-2 melanoma) was > 100 µM, the TGI (SK-MEL-28 melanoma) was > 100 µM and the TGI (SK-MEL-5 melanoma) was > 100 µM. For the same molecule, the TGI (SK-OV-3 ovarian) was > 100 µM, the TGI (SN12C renal) was > 100 µM and the TGI (SNB-19 CNS) was > 100 µM. The TGI (SNB-75 CNS) was > 100 µM, the TGI (SNB-78 CNS) was > 100 µM and the TGI (SR leukemia) was > 100 µM. For the same molecule, the TGI (SW-620 colon) was > 100 µM, the TGI (TK-10 renal) was > 100 µM and the TGI (U251 CNS) was > 100 µM. The TGI (UACC-257 melanoma) was > 100 µM, the TGI (UACC-62 melanoma) was > 100 µM and the TGI (UO-31 renal) was > 100 µM. For the same molecule, the TGI (XF 498 CNS) was > 100 µM.
